Measurements: patent publication US12404241B2 (Celgene Corporation, priority 2018, dated 2025)
Counter-ions that a name gives are not always drawn.

Target: T1, AR (Homo sapiens, UniProt P10275)
T1 construct: endogenous in cells; host or cells: VCaP cells
T1 sequence (P10275 1-920): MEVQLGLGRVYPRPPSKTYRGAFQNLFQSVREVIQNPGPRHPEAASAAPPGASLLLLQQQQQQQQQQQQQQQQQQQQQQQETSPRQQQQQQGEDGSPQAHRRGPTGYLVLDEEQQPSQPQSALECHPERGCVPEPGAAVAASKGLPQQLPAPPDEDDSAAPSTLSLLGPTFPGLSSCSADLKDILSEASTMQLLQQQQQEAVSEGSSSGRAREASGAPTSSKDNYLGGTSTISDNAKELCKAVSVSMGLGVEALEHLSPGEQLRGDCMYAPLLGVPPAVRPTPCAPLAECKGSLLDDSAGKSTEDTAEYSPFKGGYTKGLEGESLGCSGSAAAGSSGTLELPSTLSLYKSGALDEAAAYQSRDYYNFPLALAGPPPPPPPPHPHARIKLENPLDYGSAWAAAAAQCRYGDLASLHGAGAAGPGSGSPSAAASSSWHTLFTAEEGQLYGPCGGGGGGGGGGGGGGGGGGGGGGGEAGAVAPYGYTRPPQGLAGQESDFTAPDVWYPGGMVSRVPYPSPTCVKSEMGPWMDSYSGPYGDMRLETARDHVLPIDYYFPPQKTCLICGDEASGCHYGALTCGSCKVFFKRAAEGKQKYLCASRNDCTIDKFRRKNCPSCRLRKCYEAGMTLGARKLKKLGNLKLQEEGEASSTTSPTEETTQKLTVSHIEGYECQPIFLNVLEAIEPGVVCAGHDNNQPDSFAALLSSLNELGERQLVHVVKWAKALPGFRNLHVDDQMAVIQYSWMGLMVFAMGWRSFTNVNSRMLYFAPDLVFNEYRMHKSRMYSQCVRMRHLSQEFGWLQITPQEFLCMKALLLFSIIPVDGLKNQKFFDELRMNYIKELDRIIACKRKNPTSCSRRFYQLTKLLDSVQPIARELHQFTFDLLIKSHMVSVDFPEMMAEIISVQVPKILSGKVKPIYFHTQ
Assay: VCAP AR Degradation Assay
Format: cell-based
Settings: for Y (AR degradation efficiency, % of DMSO control): class symbols *; for DC50: class symbols A-C, read-out: DC50
Summary of the method: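 AR protein in lysates quantified by sandwich ELISA after 24 h exposure of VCaP cells at 37 °C to 10 concentrations (1:3 steps, 5 μM top, final). Four-parameter logistic fit of percent-of-DMSO levels gave DC50 (50% degradation), EC50 and minimal AR level Y.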

Row | SMILES | Y (AR degradation efficiency, % of DMSO control) | DC50
1 | CC(C)c1cc(N2C(=S)N(c3ccc(C#N)c(C(F)(F)F)c3)C(=O)C2(C)C)cnc1OCCN1C[C@@H](C)N(CC(=O)Nc2cccc(NC3CCC(=O)NC3=O)c2)C[C@H]1C (stereo partly drawn) [Example 230, 2-((2R,5R)-4-(2-(5-(3-(4-cyano-3-(trifluoromethyl)phenyl)-5,5-dimethyl-4-oxo-2-thioxoimidazolidin-1-yl)-3-isopropylpyridin-2-yloxy)ethyl)-2,5-dimethylpiperazin-1-yl)-N-(3-(2,6-dioxopiperidin-3-ylamino)phenyl)acetamide] | *** (35%<Y<50%) | 500 to 1000 nM
2 | CCc1cc(N2C(=S)N(c3ccc(C#N)c(C(F)(F)F)c3)C(=O)C2(C)C)ccc1OCCN1CCN([C@H](C)C(=O)Nc2cccc(NC3CCC(=O)NC3=O)c2)[C@@H](C)C1 (stereo partly drawn) [Example 274, (2R)-2-((S)-4-(2-(4-(3-(4-cyano-3-(trifluoromethyl)phenyl)-5,5-dimethyl-4-oxo-2-thioxoimidazolidin-1-yl)-2-ethylphenoxy)ethyl)-2-methylpiperazin-1-yl)-N-(3-(2,6-dioxopiperidin-3-ylamino)phenyl)propanamide] | * (0<Y<=25%) | < 100 nM
3 | CCc1cc(N2C(=S)N(c3cnc(C#N)c(C(F)(F)F)c3)C(=O)C2(C)C)ccc1OCCN1CCN(CC(=O)Nc2cc(Cl)cc(NC3CCC(=O)NC3=O)c2)[C@H](C)C1 (stereo partly drawn) [Example 144, N-(3-chloro-5-(2,6-dioxopiperidin-3-ylamino)phenyl)-2-((R)-4-(2-(4-(3-(6-cyano-5-(trifluoromethyl)pyridin-3-yl)-5,5-dimethyl-4-oxo-2-thioxoimidazolidin-1-yl)-2-ethylphenoxy)ethyl)-2-methylpiperazin-1-yl)acetamide] | * (0<Y<=25%) | < 100 nM
4 | CC(C)c1cc(N2C(=S)N(c3ccc(C#N)c(C(F)(F)F)c3)C(=O)C2(C)C)ccc1OCCN1C[C@@H](C)N(CC(=O)Nc2cc(C#N)cc(NC3CCC(=O)NC3=O)c2)[C@@H](C)C1 (stereo partly drawn) [Example 194, 2-((2S,6R)-4-(2-(4-(3-(4-cyano-3-(trifluoromethyl)phenyl)-5,5-dimethyl-4-oxo-2-thioxoimidazolidin-1-yl)-2-isopropylphenoxy)ethyl)-2,6-dimethylpiperazin-1-yl)-N-(3-cyano-5-(2,6-dioxopiperidin-3-ylamino)phenyl)acetamide] | * (0<Y<=25%) | < 100 nM
5 | CCc1cc(N2C(=S)N(c3cnc(C#N)c(C(F)(F)F)c3)C(=O)C2(C)C)ccc1OCCN1CCN(CC(=O)Nc2cccc(NC3CCC(=O)NC3=O)c2)C2(CC2)C1 (stereo not drawn) [Example 99, 2-(7-(2-(4-(3-(6-cyano-5-(trifluoromethyl)pyridin-3-yl)-5,5-dimethyl-4-oxo-2-thioxoimidazolidin-1-yl)-2-ethylphenoxy)ethyl)-4,7-diazaspiro[2.5]octan-4-yl)-N-(3-(2,6-dioxopiperidin-3-ylamino)phenyl)acetamide] | * (0<Y<=25%) | < 100 nM
6 | CC(C)c1cc(N2C(=S)N(c3ccc(C#N)c(Cl)c3)C(=O)C2(C)C)ccc1OCCN1C[C@@H](C)N(CC(=O)Nc2cc(C#N)cc(NC3CCC(=O)NC3=O)c2)[C@@H](C)C1 (stereo partly drawn) [Example 250, 2-((2S,6R)-4-(2-(4-(3-(3-chloro-4-cyanophenyl)-5,5-dimethyl-4-oxo-2-thioxoimidazolidin-1-yl)-2-isopropylphenoxy)ethyl)-2,6-dimethylpiperazin-1-yl)-N-(3-cyano-5-(2,6-dioxopiperidin-3-ylamino)phenyl)acetamide] | * (0<Y<=25%) | < 100 nM
7 | CC1(C)C(=O)N(c2cnc(C#N)c(C(F)(F)F)c2)C(=S)N1c1ccc(OCCN2CCN(CC(=O)Nc3cc(NC4CCC(=O)NC4=O)ccc3F)CC2)c(CCF)c1 (stereo not drawn) [Example 71, 2-(4-(2-(4-(3-(6-cyano-5-(trifluoromethyl)pyridin-3-yl)-5,5-dimethyl-4-oxo-2-thioxoimidazolidin-1-yl)-2-(2-fluoroethyl)phenoxy)ethyl)piperazin-1-yl)-N-(5-(2,6-dioxopiperidin-3-ylamino)-2-fluorophenyl)acetamide] | * (0<Y<=25%) | < 100 nM
8 | C[C@@H]1CN(CCOc2ccc(N3C(=S)N(c4ccc(C#N)c(C(F)(F)F)c4)C(=O)C3(C)C)cc2C(C)(F)F)CCN1CC(=O)Nc1cc(Cl)cc(NC2CCC(=O)NC2=O)c1 (stereo partly drawn) [Example 148, N-(3-chloro-5-(2,6-dioxopiperidin-3-ylamino)phenyl)-2-((R)-4-(2-(4-(3-(4-cyano-3-(trifluoromethyl)phenyl)-5,5-dimethyl-4-oxo-2-thioxoimidazolidin-1-yl)-2-(1,1-difluoroethyl)phenoxy)ethyl)-2-methylpiperazin-1-yl)acetamide] | * (0<Y<=25%) | < 100 nM
9 | CC(C)c1cc(N2C(=S)N(c3cnc(C#N)c(C(F)(F)F)c3)C(=O)C2(C)C)ccc1OCCN1CCN(CC(=O)Nc2cccc(NC3CCC(=O)NC3=O)c2)[C@H](C(F)(F)F)C1 (stereo partly drawn) [Example 256, 2-((S)-4-(2-(4-(3-(6-cyano-5-(trifluoromethyl)pyridin-3-yl)-5,5-dimethyl-4-oxo-2-thioxoimidazolidin-1-yl)-2-isopropylphenoxy)ethyl)-2-(trifluoromethyl)piperazin-1-yl)-N-(3-(2,6-dioxopiperidin-3-ylamino)phenyl)acetamide] | ** (25%<Y<=35%) | 100 to 500 nM
10 | CCc1cc(N2C(=S)N(c3cnc(C#N)c(C(F)(F)F)c3)C(=O)C2(C)C)ccc1OCCN1CCN(CC(=O)Nc2cccc(N[C@H]3CCC(=O)NC3=O)c2)[C@H](C)C1 [Example 137, 2-((R)-4-(2-(4-(3-(6-cyano-5-(trifluoromethyl)pyridin-3-yl)-5,5-dimethyl-4-oxo-2-thioxoimidazolidin-1-yl)-2-ethylphenoxy)ethyl)-2-methylpiperazin-1-yl)-N-(3-((S)-2,6-dioxopiperidin-3-ylamino)phenyl)acetamide] | * (0<Y<=25%) | < 100 nM
11 | CC1(C)C(=O)N(c2ccc(C#N)c(C(F)(F)F)c2)C(=S)N1c1ccc(OCCN2CCN(CC(=O)Nc3cc(Cl)cc(NC4CCC(=O)NC4=O)c3)CC2)c(C2CC2)c1 (stereo not drawn) [Example 30, hydrochloride] | * (0<Y<=25%) | < 100 nM
12 | CCc1cc(N2C(=S)N(c3cnc(C#N)c(C(F)(F)F)c3)C(=O)C2(C)C)ccc1OCCN1CCN(CC(=O)Nc2cc(Cl)cc(NC3CCC(=O)NC3=O)c2)[C@H](C)C1 (stereo partly drawn) [Example 74, N-(3-chloro-5-(2,6-dioxopiperidin-3-ylamino)phenyl)-2-((R)-4-(2-(4-(3-(6-cyano-5-(trifluoromethyl)pyridin-3-yl)-5,5-dimethyl-4-oxo-2-thioxoimidazolidin-1-yl)-2-ethylphenoxy)ethyl)-2-methylpiperazin-1-yl)acetamide] | * (0<Y<=25%) | < 100 nM
13 | CC(C)c1cc(N2C(=S)N(c3ccc(C#N)c(C(F)(F)F)c3)C(=O)C2(C)C)cnc1OCCN1C[C@@H](C)N(CC(=O)Nc2cc(Cl)cc(NC3CCC(=O)NC3=O)c2)C[C@H]1C (stereo partly drawn) [Example 214, N-(3-chloro-5-(2,6-dioxopiperidin-3-ylamino)phenyl)-2-((2R,5R)-4-(2-(5-(3-(4-cyano-3-(trifluoromethyl)phenyl)-5,5-dimethyl-4-oxo-2-thioxoimidazolidin-1-yl)-3-isopropylpyridin-2-yloxy)ethyl)-2,5-dimethylpiperazin-1-yl)acetamide] | ** (25%<Y<=35%) | 100 to 500 nM
14 | CCc1cc(N2C(=S)N(c3ccc(C#N)c(C(F)(F)F)c3)C(=O)C2(C)C)ccc1OCCN1C[C@@H](C)N(CC(=O)Nc2cc(C#N)cc(NC3CCC(=O)NC3=O)c2)C[C@H]1C (stereo partly drawn) [Example 181, 2-((2R,5R)-4-(2-(4-(3-(4-cyano-3-(trifluoromethyl)phenyl)-5,5-dimethyl-4-oxo-2-thioxoimidazolidin-1-yl)-2-ethylphenoxy)ethyl)-2,5-dimethylpiperazin-1-yl)-N-(3-cyano-5-(2,6-dioxopiperidin-3-ylamino)phenyl)acetamide] | * (0<Y<=25%) | < 100 nM
15 | CC1(C)C(=O)N(c2ccc(C#N)c(C(F)(F)F)c2)C(=S)N1c1ccc(OCCN2CCN(CC(=O)Nc3cc(NC4CCC(=O)NC4=O)ccc3F)CC2)c(CC(F)F)c1 (stereo not drawn) [Example 174, 2-(4-(2-(4-(3-(4-cyano-3-(trifluoromethyl)phenyl)-5,5-dimethyl-4-oxo-2-thioxoimidazolidin-1-yl)-2-(2,2-difluoroethyl)phenoxy)ethyl)piperazin-1-yl)-N-(5-(2,6-dioxopiperidin-3-ylamino)-2-fluorophenyl)acetamide] | * (0<Y<=25%) | < 100 nM
